Results as given in patent publication US6383771B1, “Enzyme-based assay for determining effects of exogenous and endogenous factors on cellular energy” (Birkmayer Pharmaceuticals, priority 1997, dated 2002).
“And” between values parts separate entries of the source, which are not always exact repeats. Equal entries are not always repeated.

Experiments:
complex I = conditions: metabolite of MPTP; cited from earlier work
[1] = tested on: NADH cytochrome C reductase; conditions: certain brain areas; causing Parkinsonian-like symptoms; cited from earlier work
[2] = Physical performance on the treadmill or bicycle ergometer, soccer players; format: in vivo, human; conditions: 5-mg tablet NADH daily, one month
Protocol: A study similar to that of Example 3 was performed with a European soccer team. […] This increased energy production was confirmed by improved physical performance on the treadmill or bicycle ergometer.

[3] = tested on: NADH cytochrome C reductase; assay: NADH cytochrome C reductase assay, rats before and after oral NADH; format: in vivo; set-up: Enzyme Activity after NADH intake: unit not given here
Protocol: (§1) Enzyme Preparation A 1-mL portion of a whole blood sample obtained from a subject by venipuncture is preserved by addition of a suitable preserving agent such as that provided by a citrate solution. To a 100-μL sample of this citrate blood is added 900 μL of phosphate balanced salt solution (PBS) at pH =7.8. The resulting 1-mL portion of buffer-diluted citrate blood is sonified with an apparatus such as that available from BRANSON at a duty cycle of 40%, output position 3. Sonification is repeated a total of ten times for 10 seconds each. An additional 1-mL volume of PBS is added to the sonified solution. The PBS-diluted solution represents the enzyme preparation utilized for further assay.
(§2) Substrate preparation A 10-mg sample of cytochrome C, obtainable from conventional sources such as Sigma Chemical, St. Louis is dissolved in 9.6 mL of distilled water. To this is added add 200 μL of 0.1 M NaN3 (sodium azide) and 200 μL of PBS (pH 7.8).
(§3) Performance of the enzyme assay A 900-μL volume of cytochrome C solution (reaction substrate) is pipetted into a 1-mL (PMMA) cuvette. The sample is mixed and allowed to incubate for 15 minutes at 37°. A 100-μL volume of enzyme preparation is added to the sample cuvette and mixed thoroughly. The absorption of reduced cytochrome C at 550 nm is measured exactly 60 seconds after addition of the enzyme preparation to the cuvette. The absorption of cytochrome C at 550 nm is again measured after 5 minutes of incubation at 37° C. after the first measurement. […]
(§4) Determination of enzymatic activity The specific activity of the enzyme species is expressed as nanomoles (nmol) of cytochrome C reduced per μL blood per 5 minutes. For quantitative analyses, a calibration curve with 0, 30, 50, 100, 130 nmol reduced cytochrome C concentrations is prepared. For calculation of the enzymatic activity expressed per blood cell, the number of red blood cells, white blood cells and IS platelets are determined. The cell counts of these cells can be determined from the undiluted citrate blood according to standard procedures.

[4] = Lactate blood levels after maximum performance; format: in vivo, human
Protocol: (§5) The performance quality, reaction speed and constancy of attention also was tested in these athletes. The performance quality was assessed by the accuracy with which a task was done, i.e., generally in terms of the number of correct identifications of stimuli. Methods used for determination of performance quality were measurement of the continuous attention, vigilance, and the cognitrone program of the Vienna Test system (Dr. Schuhfried Ges.m.b.H., Austria). For examination of the physical performance, a bicycle ergometer (Oxycon-Alpha, Jager Inc., Vienna, Austria) was used. […] The volume and the intensity of the training and exercise program of the athletes was kept constant over that period. […] Data reflecting this is presented below in Tables 2-4.

[5] = Performance quality: continuous attention, vigilance, cognitrone (Vienna Test system); format: in vivo, human; set-up: Continuous attention: DRT (mean value), after NADH / Cognitrone: DRT (mean), after NADH / Vigilance: correct reactions, after NADH / Vigilance: DRT (mean), after NADH: unit not given here
Protocol: The performance quality, reaction speed and constancy of attention also was tested in these athletes. The performance quality was assessed by the accuracy with which a task was done, i.e., generally in terms of the number of correct identifications of stimuli. Methods used for determination of performance quality were measurement of the continuous attention, vigilance, and the cognitrone program of the Vienna Test system (Dr. Schuhfried Ges.m.b.H., Austria). For examination of the physical performance, a bicycle ergometer (Oxycon-Alpha, Jager Inc., Vienna, Austria) was used. […] The volume and the intensity of the training and exercise program of the athletes was kept constant over that period.

[6] = Physical performance by spiro-ergometry (bicycle ergometer); format: in vivo, human; conditions: 4 weeks
Protocol: as §5

[7] = tested on: NADH cytochrome C reductase; assay: NADH cytochrome C reductase assay of whole blood, competitive cyclists before and after oral NADH; format: in vivo, human
Protocol: as §1, §2, §3
as §4, with “procedures. […]” for “procedures.”

[8] = tested on: NADH cytochrome C reductase; assay: NADH cytochrome C reductase assay of whole blood, soccer players before and after oral NADH; format: in vivo, human; set-up: key to Enzyme Activity after NADH intake: nmol cytochrome C reduced per µL blood per 5 min
Protocol: as §1, §2, §3
as §4, with “procedures. […]” for “procedures.”

[9] = rats, per animal, one 2.5-mg tablet NADH daily for three months
[10] = after 4 weeks of one 5-mg tablet NADH per day (n = 17)
[11] = after vs before 4 weeks of one 5-mg tablet NADH per day (n = 17)
[12] = 4 weeks after intake of one 5-mg tablet NADH per day, n = 17
[13] = 4 weeks of one 5-mg tablet NADH per day vs before, n = 17
[14] = after NADH, 1 tablet NADH (5 mg) per day
[15] = soccer players, per subject, one 5-mg tablet NADH daily for one month

## C[n+]1ccc(-c2ccccc2)cc1 [MPP^+, 1-methyl-4-phenyl-pyridine]
Complex I
  effect on complex I in the ETC: inhibits

## CN1CC=C(c2ccccc2)CC1 [MPTP, 1-methyl-4-phenyl-1,2,3,6-tetrahydropyridine]
[1]
  effect on NADH cytochrome C reductase: irreversibly inhibits and destroys

## NC(=O)C1=CN([C@@H]2O[C@H](COP(=O)(O)OP(=O)(O)OC[C@H]3O[C@@H](n4cnc5c(N)ncnc54)[C@H](O)[C@@H]3O)[C@@H](O)[C@H]2O)C=CC1 [NADH, reduced form of nicotinamide adenine dinucleotide]
[2]
  physical performance on the treadmill or bicycle ergometer: improved
[3]; all test animals (rats), 2.5-mg tablet daily, three months
  enzymatic activity: increase
[3]; [9]
  % Difference in enzyme activity (after vs before NADH intake): 17.1% and 13.5% (2×) and 11.4% and 7.5% and 13.8% (2×) and 20.0% and 9.6% and 12.5%
  Enzyme Activity after NADH intake: 0.41 (3×) and 0.42 (2×) and 0.39 and 0.43 (2×) and 0.45 (2×)
[4]; [10]
  Lactate Level 1 min. after maximum performance, after NADH, mean: 9.0
  Lactate Level 3 min. after maximum performance, after NADH, mean: 7.4
[4]; [11]
  Lactate Level 1 min. after maximum performance, Differences in percent, Dmax: 22.2%
  Lactate Level 1 min. after maximum performance, Differences in percent, Dmean: 10.0%
  Lactate Level 1 min. after maximum performance, Differences in percent, Dmed: 9.6%
  Lactate Level 1 min. after maximum performance, Differences in percent, Dmin: −7.3%
  Lactate Level 3 min. after maximum performance, Differences in percent, Dmax: 70.3%
  Lactate Level 3 min. after maximum performance, Differences in percent, Dmean: 17.2%
  Lactate Level 3 min. after maximum performance, Differences in percent, Dmed: −3.7%
  Lactate Level 3 min. after maximum performance, Differences in percent, Dmin: −22.5%
[5]; [12]
  Cognitrone: Correct reactions, after NADH: 190.10
  Cognitrone: DRT (mean), after NADH: 2.09
  Continuous attention: DRT (mean value), after NADH: 0.81
  Continuous attention: Dispersion, after NADH: 0.17
  Continuous attention: correct reactions, after NADH: 118.80
  Continuous attention: missed reactions, after NADH: 1.24
  Vigilance: DRT (mean), after NADH: 0.55
  Vigilance: Dispersion, after NADH: 0.11
  Vigilance: correct reactions, after NADH: 97.88
  Vigilance: incorrect reactions, after NADH: 1.24
[5]; [13]
  Cognitrone: Correct reactions, % alteration per person: 2.98%
  Cognitrone: DRT (mean), % alteration per person: −16.05%
  Cognitrone: working time (min), % alteration per person: −14.36%
  Continuous attention: DRT (mean value), % alteration per person: −6.48%
  Continuous attention: Dispersion, % alteration per person: −11.59%
  Continuous attention: correct reactions, % alteration per person: 1.42%
  Continuous attention: incorrect reactions, absolute alteration per person: −1.12
  Continuous attention: missed reactions, absolute alteration per person: −1.41
  Vigilance: DRT (mean), % alteration per person: 7.79%
  Vigilance: Dispersion, % alteration per person: 4.79%
  Vigilance: correct reactions, % alteration per person: 0.01%
  Vigilance: incorrect reactions, absolute alteration per person: −0.65
  Vigilance: missed reactions, absolute alteration per person: 0.24
[5]; the nineteen athletes with increased enzyme activity, 5 mg NADH daily, 4 weeks
  mental performance: improved
[6]; [14]
  Hfmax, mean: 180.00
  Rmax, mean: 1.00
  VO2Max, mean: 4.98
  VO2Max/kg, mean: 71.20
  Vmax, mean: 163.00
  Wmax (maximum performance), mean: 340.00
  Wmax/kg, mean: 4.90
[6]; the nineteen athletes with increased enzyme activity, 5 mg NADH daily
  physical performance: improved
[7]; competitive cyclists, per subject, one 5-mg tablet NADH daily for one month
  % Difference in enzyme activity (after vs before NADH intake): 50.00% (4×) and 57.10% and 46.70% (2×) and 76.90% and 47.10% (3×) and 64.30% and 60.00% and 61.50% and 53.30% and 58.30% and 41.20%
[7]; competitive cyclists, per subject, one 5-mg tablet NADH daily for one month, activity expressed as nmol cytochrome C reduced per μL blood per 5 minutes
  Enzyme Activity after NADH intake: 2.1 (2×) and 2.2 (3×) and 2.3 (3×) and 2.4 (4×) and 2.5 (3×) and 2.7 and 1.9
[7]; in nineteen of the twenty athletes, 5-mg tablet daily, one month
  endogenous NADH cytochrome C reductase activity: increase
[8]; fifteen soccer players, 5-mg tablet daily, one month
  endogenous NADH cytochrome C reductase activity: increase
[8]; [15]
  % Difference in enzyme activity (after vs before NADH intake): 20.00% (4×) and 8.30% and −8.30% and 0.00% (2×) and 33.00% and 16.00% and 7.10% (2×) and 162% and 75% and 6.60%
  Enzyme Activity after NADH intake: 1.2 and 1.3 (2×) and 1.6 (5×) and 1.4 (2×) and 1.1 and 1.5 (2×) and 2.1 (2×)
